Values joined by “and” are separate entries in the source; they are usually repeats but may differ in a detail not shown here. Identical values can stand only once. Inconclusive results and toxic doses are left out. The calls were made as follows: active = survival T/C of 150% or more; inactive = T/C below 125% in these data.
System: BDF1 mice, B16 melanoma ip, median survival T/C
Experiment: NCI In Vivo Anticancer Drug Screen. Data for tumor model B16 Melanoma (intraperitoneal) in B6D2F1 (BDF1) mice
Settings: endpoint: median survival time, higher = longer survival
Procedure, shortened: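 The ratio T/C compares compound-treated mice with vehicle-treated controls, using survival or tumor size as the endpoint in a transplantable tumor model.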

[1] = dose: 100.0 mg/kg/injection, schedule: Q01DX009 (ip), vehicle: saline with Tween-80
[2] = dose: 200.0 mg/kg/injection, schedule: Q01DX009 (ip), vehicle: saline with Tween-80
[3] = dose: 400.0 mg/kg/injection, schedule: Q01DX009 (ip), vehicle: saline with Tween-80
[4] = dose: 25.0 mg/kg/injection, schedule: Q01DX009 (ip), vehicle: saline with Tween-80
[5] = dose: 50.0 mg/kg/injection, schedule: Q01DX009 (ip), vehicle: saline with Tween-80
[6] = dose: 100.0 mg/kg/injection, schedule: Q01DX009 (ip), vehicle: Klucel (hydroxypropylcellulose) (HPC)
[7] = dose: 200.0 mg/kg/injection, schedule: Q01DX009 (ip), vehicle: Klucel (hydroxypropylcellulose) (HPC)
[8] = dose: 400.0 mg/kg/injection, schedule: Q01DX009 (ip), vehicle: Klucel (hydroxypropylcellulose) (HPC)
[9] = dose: 12.5 mg/kg/injection, schedule: Q01DX009 (ip), vehicle: saline with Tween-80

Measured: T/C

O=C(OCCCCCCl)c1ccccc1
inactive: [1] 117 % of control | [2] 104 % of control | [3] 106 % of control

CCN(CC)S(=O)(=O)c1ccc(OC)c(N)c1
inactive: [4] 107 % of control | [5] 100 % of control | dose: 50.0 mg/kg/injection, schedule: Q04DX003 (ip), vehicle: saline with Tween-80 104 % of control | [1] 105 % of control | dose: 100.0 mg/kg/injection, schedule: Q04DX003 (ip), vehicle: saline with Tween-80 104 % of control

c1cc[c]([Pb]([c]2ccccc2)([c]2ccccc2)[n]2ccc3ccccc32)cc1
inactive: dose: 2.08 mg/kg/injection, schedule: Q01DX009 (ip), vehicle: saline with Tween-80 102 % of control | dose: 3.12 mg/kg/injection, schedule: Q01DX009 (ip), vehicle: saline with Tween-80 97 % of control

CS(=O)(=O)c1cc(C(F)(F)F)cc([N+](=O)[O-])c1Cl
inactive: [4] 89 % of control | [5] 95 % of control | [1] 95 % of control

Nc1ncnc2c1ncn2C1OC(CO)CC1O (stereo not drawn)
inactive: dose: 18.75 mg/kg/injection, schedule: Q01DX009 (ip), vehicle: Klucel (hydroxypropylcellulose) (HPC) 113 % of control | dose: 37.5 mg/kg/injection, schedule: Q01DX009 (ip), vehicle: Klucel (hydroxypropylcellulose) (HPC) 112 % of control and 119 % of control | dose: 75.0 mg/kg/injection, schedule: Q01DX009 (ip), vehicle: Klucel (hydroxypropylcellulose) (HPC) 104 % of control and 115 % of control

O=S(=O)(O)c1ccc(Nc2ccccc2)cc1
inactive: [6] 107 % of control and 97 % of control | [7] 114 % of control and 88 % of control | [8] 107 % of control and 100 % of control

COc1ccc(/C=C\C(=O)/C=C/c2ccc(OC)cc2)cc1
inactive: dose: 25.0 mg/kg/injection, schedule: Q04DX003 (ip), vehicle: Klucel (hydroxypropylcellulose) (HPC) 97 % of control | dose: 50.0 mg/kg/injection, schedule: Q04DX003 (ip), vehicle: Klucel (hydroxypropylcellulose) (HPC) 97 % of control | dose: 100.0 mg/kg/injection, schedule: Q04DX003 (ip), vehicle: Klucel (hydroxypropylcellulose) (HPC) 97 % of control

NNC(=O)CCC(=O)NN
inactive: [1] 102 % of control | [2] 104 % of control | [3] 93 % of control

COc1ccccc1NC(=O)Nc1cccc(Cl)c1
inactive: dose: 6.25 mg/kg/injection, schedule: Q01DX009 (ip), vehicle: saline with Tween-80 105 % of control | [9] 97 % of control | [4] 100 % of control

Cc1ccc(NC(=O)CCl)cc1Cl
inactive: [4] 97 % of control | [5] 102 % of control | [1] 101 % of control

Cc1cnccc1Br
inactive: dose: 25.0 mg/kg/injection, schedule: Q01DX009 (ip), vehicle: water 96 % of control | dose: 50.0 mg/kg/injection, schedule: Q01DX009 (ip), vehicle: water 97 % of control

CCCCC(C)(C(=O)OCC)C(=O)OCC
inactive: dose: 12.5 mg/kg/injection, schedule: Q01DX009 (ip), vehicle: Klucel (hydroxypropylcellulose) (HPC) 108 % of control | dose: 25.0 mg/kg/injection, schedule: Q01DX009 (ip), vehicle: Klucel (hydroxypropylcellulose) (HPC) 101 % of control | dose: 50.0 mg/kg/injection, schedule: Q01DX009 (ip), vehicle: Klucel (hydroxypropylcellulose) (HPC) 102 % of control | [6] 101 % of control | [7] 102 % of control | [8] 94 % of control

CCCCC(=O)NN
inactive: [9] 102 % of control | [4] 96 % of control | [5] 100 % of control

CC(=O)OCC12CCC(C)=CC1OC1C(OS(C)(=O)=O)C(=O)C2(C)C12CO2 (stereo not drawn)
inactive: dose: 0.5 mg/kg/injection, schedule: Q01DX009 (ip), vehicle: saline 101 % of control | dose: 1.0 mg/kg/injection, schedule: Q01DX009 (ip), vehicle: saline 95 % of control | dose: 2.0 mg/kg/injection, schedule: Q01DX009 (ip), vehicle: saline 104 % of control | dose: 4.0 mg/kg/injection, schedule: Q01DX009 (ip), vehicle: saline 88 % of control

Cc1ccc(C)c(C(O)C2CC2)c1 (stereo not drawn)
inactive: [5] 104 % of control | [1] 100 % of control

— PubChem BioAssay AID192 (DTP/NCI, 2004)
